Data published in patent publication US20250108038A1 (priority 2023, published 2025).
pIC50: −log10 of the molar value. “And” between values parts separate entries of the source, which are not always exact repeats. Identical values can stand only once.

Columns and labels:
in vivo = conditions: for AUC0-inf of Compound I-19 / AUC0-last of Compound I-19 / Cmax of Compound I-19 / MRT0-inf of Compound I-19 / MRT0-last of Compound I-19 / T1/2 of Compound I-19 / Tlast of Compound I-19 / Tmax of Compound I-19: male CD-1 mice; for plasma concentration of Compound I-19: single PO 6.654 mg/kg (as titled)
Description: Dose solutions were prepared freshly on each day of studies prior to dosing.
The animals were weighed immediately prior to dosing and the dose volume was calculated individually based the obtained body weight and the nominal dose volume. […] The nominal dose volume was 10 mL/kg in both studies.
Cage side observation was performed before and after dosing as well as at each scheduled sample collection time. The observation included appearance, posture, behavior, morbidity and mortality. Abnormal findings, if any, are required to be recorded in the study record and communicated with study director, veterinarian, and Supernus if necessary.
Approximately 40 μL blood was collected at each scheduled time point from saphenous veins. The actual sample collection time was within 1 min. of the nominal time for collections prior to or at 1 hour, and within 5% of the nominal values for collections post 1 hour.
The blood samples were placed in pre-labeled micro-centrifuge tubes containing K2EDTA as anticoagulant and kept on ice before they were processed to plasma within 30 minutes of collection by centrifugation at 4° C., 3000 g for 5 minutes. The plasma samples were stored at −70±10° C. until LC-MS/MS analysis.
Plasma concentrations below the LLOQ prior to Tmax were set to zero, and those after Tmax were excluded from PK calculation. The nominal dose and the nominal sample collection time were used for the calculation. The values of plasma concentrations and PK parameters are reported to three significant figures. The average values of each treatment group are presented as mean±SD.

OCT2 = biological target: T1, OCT2 (Homo sapiens, UniProt O15244); assay: Uptake transporter inhibition assay, OCT2 (metformin)
T1 sequence (O15244 1-555): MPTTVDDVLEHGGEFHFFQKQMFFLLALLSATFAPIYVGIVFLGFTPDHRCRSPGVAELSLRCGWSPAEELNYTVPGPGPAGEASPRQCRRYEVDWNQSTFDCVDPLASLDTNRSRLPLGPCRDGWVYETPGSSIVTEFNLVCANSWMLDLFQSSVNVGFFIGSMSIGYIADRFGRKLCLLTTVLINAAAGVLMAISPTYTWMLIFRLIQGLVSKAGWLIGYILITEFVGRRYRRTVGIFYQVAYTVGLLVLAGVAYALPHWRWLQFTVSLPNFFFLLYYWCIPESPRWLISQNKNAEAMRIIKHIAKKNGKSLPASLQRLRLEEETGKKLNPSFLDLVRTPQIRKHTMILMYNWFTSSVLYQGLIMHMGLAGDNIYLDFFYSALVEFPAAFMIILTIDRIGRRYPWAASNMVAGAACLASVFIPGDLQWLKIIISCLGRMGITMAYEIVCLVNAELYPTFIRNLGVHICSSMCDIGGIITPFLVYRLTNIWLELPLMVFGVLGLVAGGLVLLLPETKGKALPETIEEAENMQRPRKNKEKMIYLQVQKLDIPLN
Description: Uptake experiments were performed using HEK293 cells stably expressing the respective uptake transporters. The assays were conducted according to the actual SOLVO uptake transporter assay protocols (PR-ASY-UPT-General Protocol for Uptake Transporter Inhibition Assays).
Cells were cultured at 37° C. in a humidified atmosphere containing 5% CO2 and were plated onto standard 96-well tissue culture plates.
Before the experiment, the medium was removed, and the cells were washed twice with 100 μL of pre-warmed (37° C.) assay buffer listed in Table 15. The cells were pre-incubated at 37° C. for 30 minutes in assay buffer containing the test article at appropriate concentrations (Table 16), appropriate solvents for solvent controls and the reference inhibitor for reference inhibitor wells. After the pre-incubation step solutions were removed. Uptake experiments were performed at 37° C. in 50 μL of assay buffer containing the probe substrate and the test article or solvent and controls.
After the experiment, cells were washed twice with 100 μL of appropriate cold buffer and lysed with 150 μL scintillation cocktail. Radiolabeled probe substrate transport was determined by liquid scintillation counting.
Uptake of the probe substrate in control cells provided background activity values for all data points.

[1] = single IP Compound I-19 4.061 mg/kg, mean
[2] = single PO Compound I-19 6.645 mg/kg, individual animals
[3] = single PO Compound I-19 6.645 mg/kg, mean
[4] = 0.14 μM nominal, 0.09 μM NSB corrected, follow-up assay
[5] = 1.24 μM nominal, 0.86 μM NSB corrected, follow-up assay
[6] = 10.00 μM nominal, 6.60 μM NSB corrected
[7] = 11.11 μM nominal, 7.89 μM NSB corrected, follow-up assay
[8] = 33.33 μM nominal, 24.33 μM NSB corrected, follow-up assay
[9] = 100.00 μM nominal, 77.00 μM NSB corrected
[10] = 100.00 μM nominal, 100.00 μM NSB corrected, follow-up assay
[11] = […] nominal, 1.89 μM NSB corrected, follow-up assay

Clc1ccc(C2(OCC3OCCO3)c3ccccc3C3=NCCN32)cc1 (centres unmarked) [Compound I-19]
AUC0-inf of Compound I-19 (in vivo; [1]): 0.483 µg·h/mL
AUC0-last of Compound I-19 (in vivo; [1]): 0.482 µg·h/mL
Cmax of Compound I-19 (in vivo; [1]): 373 ng/mL
MRT0-inf of Compound I-19 (in vivo; [1]): 69.6 min
MRT0-last of Compound I-19 (in vivo; [1]): 69 min
T1/2 of Compound I-19 (in vivo; [1]): 37.9 min
Tlast of Compound I-19 (in vivo; [1]): 5.33 h
Tmax of Compound I-19 (in vivo; [1]): 25 min
plasma concentration of Compound I-19 (in vivo; 0.500 h, mean): 4.55 ng/mL
plasma concentration of Compound I-19 (in vivo; 2.00 h, individual mice): BQL
plasma concentration of Compound I-19 (in vivo; 4.00 h, individual mice): BQL
plasma concentration of Compound I-19 (in vivo; 8.00 h, individual mice): BQL
plasma concentration of Compound I-19 (in vivo; 24.0 h, individual mice): BQL
plasma concentration of Compound I-19 (in vivo; […] h, individual mice): 2.78 ng/mL
plasma concentration of Compound I-19 (in vivo; […] h, individual mice, 6.654 mg/kg): BQL
AUC0-inf of Compound I-19 (in vivo; [2]): 0.00692 µg·h/mL
MRT0-inf of Compound I-19 (in vivo; [2]): 50.2 min
MRT0-last of Compound I-19 (in vivo; [2]): 20.8 min and 15 min and 29.9 min
T1/2 of Compound I-19 (in vivo; [2]): 29.1 min
Tmax of Compound I-19 (in vivo; [2]): 30 min
AUC0-last of Compound I-19 (in vivo; [3]): 0.00204 µg·h/mL
Cmax of Compound I-19 (in vivo; [3]): 4.27 ng/mL
MRT0-last of Compound I-19 (in vivo; [3]): 21.9 min
Tlast of Compound I-19 (in vivo; [3]): 0.583 h
Tmax of Compound I-19 (in vivo; [3]): 20 min
Relative inhibition (OCT2; [4]): 1%
Relative transporter specific accumulation (OCT2; [4]): 98.93 ± 6.26 % of control
Transporter specific accumulation (OCT2; [4]): 339.33 ± 6.18 cpm
Relative inhibition (OCT2; [5]): 19%
Relative transporter specific accumulation (OCT2; [5]): 81.44 ± 5.58 % of control
Transporter specific accumulation (OCT2; [5]): 279.33 ± 8.96 cpm
Relative inhibition (OCT2; [6]): 69%
Relative transporter specific accumulation (OCT2; [6]): 30.61 ± 3.54 % of control
Transporter specific accumulation (OCT2; [6]): 126.00 ± 14.46 cpm
Relative inhibition (OCT2; [7]): 60%
Relative transporter specific accumulation (OCT2; [7]): 39.65 ± 3.63 % of control
Transporter specific accumulation (OCT2; [7]): 136.00 ± 9.32 cpm
Relative inhibition (OCT2; [8]): 87%
Relative transporter specific accumulation (OCT2; [8]): 12.63 ± 3.35 % of control
Transporter specific accumulation (OCT2; [8]): 43.33 ± 11.20 cpm
Relative inhibition (OCT2; [9]): 98%
Relative transporter specific accumulation (OCT2; [9]): 1.78 ± 0.65 % of control
Transporter specific accumulation (OCT2; [9]): 7.33 ± 2.67 cpm
Relative inhibition (OCT2; [10]): 97%
Relative transporter specific accumulation (OCT2; [10]): 3.16 ± 1.38 % of control
Transporter specific accumulation (OCT2; [10]): 10.83 ± 4.69 cpm
maximum inhibition of OCT2-mediated metformin accumulation (OCT2; 2-concentration assay, 100 μM (Compound A 30 μM)): 98%
Maximum % inhibition (OCT2; OCT2, HEK293 cells, metformin (10 μM), NIO: no inhibition observed): 97%
Relative inhibition (OCT2; [11]): 29%
Relative transporter specific accumulation (OCT2; [11]): 70.94 ± 7.30 % of control
Transporter specific accumulation (OCT2; [11]): 243.33 ± 20.22 cpm
maximum inhibition of OCT2-mediated metformin accumulation (OCT2; follow-up assay): 97%
pIC50 (OCT2; follow-up assay, NSB-corrected concentrations for Compound I-19): 5.05
